Reference: patent US8394786B2, “Quinazoline derivatives” (Janssen Pharmaceutica N.V., priority 2003, dated 2013)

Assays:
[1] = system: SKOV3 cells; test: Serum starved proliferation assay on the ovarian carcinoma SKOV3 cells (C3); format: cell-based; settings: Homo sapiens, SK-OV-3, 72 h, EGF stimulated (100 ng/ml, 72 hours, serum free) or 72 hours with compounds; MTT cell viability assay; read-out: SKOV3 cell (C3): pIC50 (converted)
Procedure, shortened: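 SKOV3 cells grown 24 h in 10% FCS, then treated with compound under serum-free conditions (37 °C, 5% CO2) and stimulated 72 h with EGF at 100 ng/ml final; read-out by MTT viability. Alternative format: compound for 72 h after the same 24 h FCS step, also by MTT.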

[2] = target: EGFR (Homo sapiens, UniProt P00533); test: In vitro inhibition of EGFR, Flash Plate or glass-fiber filter technology (C2); format: biochemical; set-up: 0.5 μg EGFR-kinase domain/well; settings: EGFR-kinase domain, 5.0 μM unlabeled ATP, read-out: Kinase activity.(C2): pIC50 (converted)
Chain of EGFR (P00533 712-979 limits assumed): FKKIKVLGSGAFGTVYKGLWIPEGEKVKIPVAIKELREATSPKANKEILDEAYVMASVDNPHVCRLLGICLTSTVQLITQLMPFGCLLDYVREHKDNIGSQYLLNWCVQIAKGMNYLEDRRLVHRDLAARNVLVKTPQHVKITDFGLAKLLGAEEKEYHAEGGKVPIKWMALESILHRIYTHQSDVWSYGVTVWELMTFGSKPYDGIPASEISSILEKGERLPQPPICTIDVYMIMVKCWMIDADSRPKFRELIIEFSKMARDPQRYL
Procedure, shortened: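 EGFR kinase domain (0.5 μg/well) phosphorylated poly(GT) with 5.0 μM ATP plus AT^33P, dose response 1·10^−6 to 1·10^−10 M. Flash Plate: biotin-poly(GT), Tris pH 8.0, 30° C, 60 min, scintillation counting. Filter: Tris pH 7.5 with MnCl2, 25° C, 10 min, 33P counted on glass-fiber filter by phosphorimaging.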

Row | Compound | melting point | IC50 [1] | IC50 [2]
1 | COc1cc2ncnc3c2cc1OCCCNC(=O)C1CCCN1Cc1ccc(Cl)cc1N3 (stereo not shown) [Compound 77, 4,6-ethanediylidene-12H-pyrimido[4,5-b]pyrrolo[2,1-l][6,1,10,13]benzoxatriazacyclohexadecin-12-one, 20-chloro-8,9,10,11,12a,13,14,15,17,22-decahydro-23-methoxy-] | 129.8 to 132.8 °C |  | 
2 | COc1cc2ncnc3c2cc1OCCCNC(=O)C1CCCN1Cc1ccc(Cl)cc1N3 (stereo not shown) [Compound 84, 4,6-ethanediylidene-12H-pyrimido[4,5-b]pyrrolo[2,1-l][6,1,10,13]benzoxatriazacyclohexadecin-12-one, 20-chloro-8,9,10,11,12a,13,14,15,17,22-decahydro-23-methoxy-] | 231.9 to 232.8 °C |  | 
3 | COc1cc2ncnc3c2cc1OCC(=O)N1CCCC1C(=O)NCCc1ccc(Cl)cc1N3 (stereo not shown) [Compound 140, 1,21-ethanediylidene-5H-pyrimido[4,5-b]pyrrolo[1,2-i][6,1,9,12]benzoxatriazacyclohexadecine-13,18(19H)-dione, 7-chloro-10,11,12,13a,14,15,16-heptahydro-23-methoxy-] |  | 200 nM | 200 nM
4 | COc1cc2ncnc3c2cc1OCC(=O)NC(CC(C)C)C(=O)NCCc1ccc(Cl)cc1N3 (stereo not shown) [Compound 141, 4,6-ethanediylidene-8H-pyrimido[4,5-b][6,1,9,12]benzoxatriazacyclohexadecine-9,12-dione, 18-chloro-10,11,13,14,15,20-hexahydro-21-methoxy-11-(2-methylpropyl)-] |  | 1580 nM | 794 nM
5 | COc1cc2ncnc3c2cc1OCC(=O)NC(C(C)O)C(=O)NCCc1ccc(Cl)cc1N3 (stereo not shown) [Compound 142, 4,6-ethanediylidene-8H-pyrimido[4,5-b][6,1,9,12]benzoxatriazacyclohexadecine-9,12-dione, 18-chloro-10,11,13,14,15,20-hexahydro-11-(1-hydroxyethyl)-21-methoxy-] |  | 631 nM | 100 nM
6 | COc1cc2ncnc3c2cc1OCCCC(=O)NC(CC(C)C)C(=O)NCc1ccc(Cl)cc1N3 (stereo not shown) [Compound 143, 4,6-ethanediylidenepyrimido[4,5-b][6,1,11,14]benzoxatriazacycloheptadecine-11,14(8H,15H)-dione, 19-chloro-9,10,12,13,16,21-hexahydro-22-methoxy-13-(2-methylpropyl)-] |  | 200 nM | 501 nM
7 | COc1cc2ncnc3c2cc1OCCCC(=O)NC(C)(C)C(=O)NCc1ccc(Cl)cc1N3 [Compound 144, 4,6-ethanediylidenepyrimido[4,5-b][6,1,11,14]benzoxatriazacycloheptadecine-11,14(8H,15H)-dione, 19-chloro-9,10,12,13,16,21-hexahydro-22-methoxy-13,13-dimethyl-] |  | 126 nM | 158 nM
8 | COc1cc2ncnc3c2cc1OCCCC(=O)NC(Cc1ccccc1)C(=O)NCc1ccc(Cl)cc1N3 (stereo not shown) [Compound 145, 4,6-ethanediylidenepyrimido[4,5-b][6,1,11,14]benzoxatriazacycloheptadecine-11,14(8H,15H)-dione, 19-chloro-9,10,12,13,16,21-hexahydro-22-methoxy-13-(phenylmethyl)-] |  | 251 nM | 200 nM
9 | COc1cc2ncnc3c2cc1OCCCC(=O)NC(C(C)O)C(=O)NCc1ccc(Cl)cc1N3 (stereo not shown) [Compound 146, 4,6-ethanediylidenepyrimido[4,5-b][6,1,11,14]benzoxatriazacycloheptadecine-11,14(8H,15H)-dione, 19-chloro-9,10,12,13,16,21-hexahydro-13-(1-hydroxyethyl)-22-methoxy-] |  | 631 nM | 200 nM
10 | COc1cc2ncnc3c2cc1OCCCCC(=O)NC(C(C)O)C(=O)NCc1ccc(Cl)cc1N3 (stereo not shown) [Compound 147, 4,6-ethanediylidene-8H-pyrimido[4,5-b][6,1,12,15]benzoxatriazacyclooctadecine-12,15(16H)-dione, 20-chloro-9,10,11,13,14,17,22-heptahydro-14-(1-hydroxyethyl)-23-methoxy-] |  | 251 nM | 126 nM
11 | COc1cc2ncnc3c2cc1OCC(=O)NC(CO)C(=O)NCCc1ccc(Cl)cc1N3 (stereo not shown) [Compound 148, 4,6-ethanediylidene-8H-pyrimido[4,5-b][6,1,9,12]benzoxatriazacyclohexadecine-9,12-dione, 18-chloro-10,11,13,14,15,20-hexahydro-11-(hydroxymethyl)-21-methoxy-] |  | 10000 nM | 251 nM
12 | COc1cc2ncnc3c2cc1OCC(=O)N1CC(O)CC1C(=O)NCCc1ccc(Cl)cc1N3 (stereo not shown) [Compound 149, 1,21-ethanediylidene-5H-pyrimido[4,5-b]pyrrolo[1,2-i][6,1,9,12]benzoxatriazacyclohexadecine-13,18(19H)-dione, 7-chloro-10,11,12,13a,14,15,16-heptahydro-15-hydroxy-23-methoxy-] |  | 1580 nM | 126 nM
13 | COc1cc2ncnc3c2cc1OCC(=O)NCC(=O)NCc1ccc(Cl)cc1N3 [Compound 151, 4,6-ethenopyrimido[4,5-b][6,1,9,12]benzoxatriazacyclopentadecine-9,12(8H,13H)-dione, 17-chloro-10,11,14,19-tetrahydro-20-methoxy-] |  | 10000 nM | 3160 nM
14 | COc1cc2ncnc3c2cc1OCC(=O)NCCC(=O)NCc1ccc(Cl)cc1N3 [Compound 152, 4,6-etheno-8H-pyrimido[4,5-b][6,1,9,13]benzoxatriazacyclohexadecine-9,13(10H,14H)-dione, 18-chloro-11,12,15,20-tetrahydro-21-methoxy-] |  | 10000 nM | 31.6 nM
15 | COc1cc2ncnc3c2cc1OCCCC(=O)NCC(=O)NCc1ccc(Cl)cc1N3 [Compound 153, 4,6-ethenopyrimido[4,5-b][6,1,11,14]benzoxatriazacycloheptadecine-11,14(8H,15H)-dione, 19-chloro-9,10,12,13,16,21-hexahydro-22-methoxy-] |  | 794 nM | 15.8 nM

Next, values leading:

Row | melting point | IC50 [1] | IC50 [2] | Compound
16 |  | 2510 nM | 39.8 nM | COc1cc2ncnc3c2cc1OCCCC(=O)NCCCC(=O)NCc1ccc(Cl)cc1N3 [Compound 154, 4,6-ethenopyrimido[4,5-b][6,1,11,16]benzoxatriazacyclononadecine-11,16(8H,17H)-dione, 21-chloro-9,10,12,13,14,15,18,23-octahydro-24-methoxy-]
17 |  | 1000 nM | 316 nM | COc1cc2ncnc3c2cc1OCCCC(=O)NCCC(=O)NCc1ccc(Cl)cc1N3 [Compound 155, 4,6-etheno-8H-pyrimido[4,5-b][6,1,11,15]benzoxatriazacyclooctadecine-11,15(12H,16H)-dione, 20-chloro-9,10,13,14,17,22-hexahydro-23-methoxy-]
18 |  | 10000 nM | 5010 nM | COc1cc2ncnc3c2cc1OCC(=O)NCCCC(=O)NCc1ccccc1N3 [Compound 158, 4,6-ethanediylidenepyrimido[4,5-b][6,1,9,14]benzoxatriazacycloheptadecine-9,14(8H,15H)-dione, 10,11,12,13,16,21-hexahydro-22-methoxy-]
19 |  | 2000 nM | 316 nM | COc1cc2ncnc3c2cc1OCC(=O)N(C)CC(=O)NCc1ccc(Cl)cc1N3 [Compound 159, 4,6-ethanediylidenepyrimido[4,5-b][6,1,9,12]benzoxatriazacyclopentadecine-9,12(8H,13H)-dione, 17-chloro-10,11,14,19-tetrahydro-20-methoxy-10-methyl-]
20 |  | 631 nM | 63.1 nM | COc1cc2ncnc3c2cc1OCC(=O)NCC(=O)NCCc1ccc(Cl)cc1N3 [Compound 160, 4,6-ethanediylidene-8H-pyrimido[4,5-b][6,1,9,12]benzoxatriazacyclohexadecine-9,12-dione, 18-chloro-10,11,13,14,15,20-hexahydro-21-methoxy-]
21 |  | 1260 nM | 63.1 nM | COc1cc2ncnc3c2cc1OCC(=O)NCCCC(=O)NCCc1ccc(Cl)cc1N3 [Compound 161, 4,6-ethanediylidene-8H-pyrimido[4,5-b][6,1,9,14]benzoxatriazacyclooctadecine-9,14-dione, 20-chloro-10,11,12,13,15,16,17,22-octahydro-23-methoxy-]
22 |  | 50.1 nM | 158 nM | COc1cc2ncnc3c2cc1OCCCCC(=O)NCCC(=O)NCc1ccc(Cl)cc1N3 [Compound 162, 4,6-ethanediylidenepyrimido[4,5-b][6,1,12,16]benzoxatriazacyclononadecine-12,16(13H,17H)-dione, 21-chloro-8,9,10,11,14,15,18,23-octahydro-24-methoxy-]
23 |  | 398 nM | 100 nM | COc1cc2ncnc3c2cc1OCCCCC(=O)NCCCC(=O)NCc1ccc(Cl)cc1N3 [Compound 163, 4,6-ethanediylidene-8H-pyrimido[4,5-b][6,1,12,17]benzoxatriazacycloeicosine-12,17(18H)-dione, 22-chloro-9,10,11,13,14,15,16,19,24-nonahydro-25-methoxy-]
24 |  | 158 nM | 501 nM | COc1cc2ncnc3c2cc1OCC(=O)N(C)CC(=O)NCCc1ccc(Cl)cc1N3 [Compound 164, 4,6-ethanediylidene-8H-pyrimido[4,5-b][6,1,9,12]benzoxatriazacyclohexadecine-9,12-dione, 18-chloro-10,11,13,14,15,20-hexahydro-21-methoxy-10-methyl-]
